The text below walks through data of ChEMBL document CHEMBL3596167, “Branched -d-mannopyranosides: a new class of potent FimH antagonists” (Medchemcomm, 2014).

By IC50 is commonly meant the concentration that gives 50% inhibition. What is called Kd is the concentration at which binding is half-saturated. Read a low Kd as higher affinity.

In series [1] the target is T1, Type 1 fimbrin D-mannose specific adhesin (Escherichia coli K-12, UniProt P08191). Put plainly: Displacement of TM-PAA polymer from Escherichia coli FimH-CRD-Th-6-His expressed in Escherichia coli HM125 by competitive binding assay.
T1 sequence (P08191 whole entry): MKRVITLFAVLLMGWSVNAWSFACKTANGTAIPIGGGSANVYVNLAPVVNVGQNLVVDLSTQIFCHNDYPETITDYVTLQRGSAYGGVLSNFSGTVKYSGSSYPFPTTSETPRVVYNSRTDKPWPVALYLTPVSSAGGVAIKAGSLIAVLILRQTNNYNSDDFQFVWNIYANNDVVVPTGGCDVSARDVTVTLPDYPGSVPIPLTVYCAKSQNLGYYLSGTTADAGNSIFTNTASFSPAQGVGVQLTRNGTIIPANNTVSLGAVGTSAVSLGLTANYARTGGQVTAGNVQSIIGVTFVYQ
Series [2] has as its target Type 1 fimbrin D-mannose specific adhesin (Escherichia coli K-12) (UniProt P08191). Put plainly: Inhibition of Escherichia coli FimH relative to methyl alpha-D-mannopyranoside.
The target is the same in series [3]. The series can be described thus: Displacement of TM-PAA polymer from Escherichia coli FimH-CRD-Th-6-His expressed in Escherichia coli HM125 at <1 uM by competitive binding assay.
The next series has as its system HepG2. Put plainly: Cytotoxicity against human HepG2 cells at 1 to 10 uM after 24 hrs by CellTiter 96 aqueous one solution cell proliferation assay. Conditions: hepg2, 24 h. The series is classed as cell-based.
Series [4] deals with Type 1 fimbrin D-mannose specific adhesin (Escherichia coli K-12) (UniProt P08191). The series can be described thus: Displacement of TM-PAA polymer from Escherichia coli FimH-CRD-Th-6-His expressed in Escherichia coli HM125 by competitive binding assay relative to heptyl alpha-D-mannopyranoside.
Chain of Type 1 fimbrin D-mannose specific adhesin (Escherichia coli K-12) (P08191 whole entry): as above
Series [5] in a line: Solubility of the compound in DMSO at 10 uM. The series is classed as physicochemical.
Series [6] deals with T1, Type 1 fimbrin D-mannose specific adhesin. The series can be described thus: Binding affinity to Escherichia coli FimH.
The target in series [7] is Type 1 fimbrin D-mannose specific adhesin (Escherichia coli K-12) (UniProt P08191). The series can be described thus: Inhibition of Escherichia coli FimH relative to heptyl alpha-D-mannopyranoside.

Structures are written as SMILES. Active and inactive are the calls of the source. The rule behind the calls is not given here.

For `N#Cc1ccc(C(=O)NCC(CNC(=O)c2ccc(C#N)cc2)O[C@H]2O[C@H](CO)[C@@H](O)[C@H](O)[C@@H]2O)cc1`, the IC50 in series [1] was determined as 978 nM.
`CCOc1c(Nc2ccc(O[C@H]3O[C@H](CO)[C@@H](O)[C@H](O)[C@@H]3O)c(Cl)c2)c(=O)c1=O`: the Ratio in series [2] worked out at 6900.
Consider `O=C(NCC(CNC(=O)c1ccc[nH]1)O[C@H]1O[C@H](CO)[C@@H](O)[C@H](O)[C@@H]1O)c1ccc[nH]1`, for which the IC50 in series [1] was 607 nM.
With `O=C(Cc1ccccc1)NCC(CNC(=O)Cc1ccccc1)O[C@H]1O[C@H](CO)[C@@H](O)[C@H](O)[C@@H]1O`, the inhibition entry in series [3] was “inactive”.
Turning to `CCOCC(COc1ccc2ccccc2c1)O[C@H]1O[C@H](CO)[C@@H](O)[C@H](O)[C@@H]1O` (some centres not stated), in the series with HepG2, the Activity entry is “Non-toxic”. Moreover, in series [1], the 50% inhibitory concentration (IC50) stood at 746 nM. Moreover, in series [4], the Ratio was determined as 0.08.
The like results for `COc1ccc(OC(COc2ccc(O)cc2)CO[C@H]2O[C@H](CO)[C@@H](O)[C@H](O)[C@@H]2O)cc1` (some centres not stated) were, in that order, “Non-toxic”, 208 nM and 0.28.
As for `OC[C@H]1O[C@H](OCC(COc2ccc3ccccc3c2)Oc2ccc3ccccc3c2)[C@@H](O)[C@@H](O)[C@@H]1O` (some centres not stated), the Activity entry with HepG2 is given as “Non-toxic”. The inhibition result in series [3] is “inactive”.
On the same counts, the results for `OC[C@H]1O[C@H](OCC(COc2cccc3ccccc23)Oc2cccc3ccccc23)[C@@H](O)[C@@H](O)[C@@H]1O` (some centres not stated) are “Non-toxic” and “inactive”.
As to `O=C(O)c1ccc(OCC(COc2cccc3ccccc23)O[C@H]2O[C@H](CO)[C@@H](O)[C@H](O)[C@@H]2O)cc1` (some centres not stated), the Activity result in the series with HepG2 was “Non-toxic”. In series [1], this compound had an IC50 of 346 nM. Further, in series [4], the Ratio is 0.17. In series [5], the solubility entry is “soluble”.
`OCC#Cc1ccc(O[C@H]2O[C@H](CO)[C@@H](O)[C@H](O)[C@@H]2O)cc1` gave a Kd in series [6] of 0.65 nM. The Ratio amounted to 3380 in series [2] and 7.7 in series [7].
Take `O=[N+]([O-])c1ccc(O[C@H]2O[C@H](CO)[C@@H](O)[C@H](O)[C@@H]2O)c(Cl)c1`: in series [2], the Ratio was determined as 717.
For the compound `O=[N+]([O-])c1ccc(OCC(COc2ccc([N+](=O)[O-])cc2)O[C@H]2O[C@H](CO)[C@@H](O)[C@H](O)[C@@H]2O)cc1`, in the series on HepG2, the Activity entry was “Non-toxic”. In series [1], this compound came in with an IC50 of 804 nM.
Take `O=[N+]([O-])c1ccc(CCO[C@H]2O[C@H](CO)[C@@H](O)[C@H](O)[C@@H]2O)cc1`: the Ratio in series [2] is 85.
Consider `O=C(Cc1ccc([N+](=O)[O-])cc1)NCC(CNC(=O)Cc1ccc([N+](=O)[O-])cc1)O[C@H]1O[C@H](CO)[C@@H](O)[C@H](O)[C@@H]1O`, for which the inhibition entry in series [3] is “inactive”.
Regarding `OC[C@H]1O[C@H](OC(COc2cccc3ccccc23)COc2cccc3ccccc23)[C@@H](O)[C@@H](O)[C@@H]1O`, the Activity entry in the series with HepG2 was “Non-toxic”.
In the case of `COc1ccc2ccc(OCC(COc3ccc4ccc(OC)cc4c3)O[C@H]3O[C@H](CO)[C@@H](O)[C@H](O)[C@@H]3O)cc2c1`, in the series on HepG2, the Activity entry is “Non-toxic”. Besides, the concentration for half-maximal inhibition (IC50) in series [1] turned out to be 593 nM.
With `COC(=O)c1ccc2ccc(OCC(COc3ccc4ccc(OC)cc4c3)O[C@H]3O[C@H](CO)[C@@H](O)[C@H](O)[C@@H]3O)cc2c1` (some centres not stated), the Activity result with HepG2 is on record as “Non-toxic”. Further, the 50% inhibitory concentration (IC50) in series [1] came out at 212 nM. The Ratio in series [4] stood at 0.28. In addition, in series [5], the solubility entry was “soluble”.
For the compound `O=[N+]([O-])c1ccc(OCC(CO[C@H]2O[C@H](CO)[C@@H](O)[C@H](O)[C@@H]2O)Oc2ccc([N+](=O)[O-])cc2)cc1` (some centres not stated), the Activity result in the series with HepG2 was “Non-toxic”.
In the case of `COc1ccc2ccc(OCC(COc3ccc4ccc(C(=O)O)cc4c3)O[C@H]3O[C@H](CO)[C@@H](O)[C@H](O)[C@@H]3O)cc2c1` (some centres not stated), the Activity result in the series with HepG2 was “Non-toxic”. Also, the IC50 in series [1] amounted to 158 nM. Besides, in series [4], the Ratio stood at 0.37. In series [5], the solubility result is “soluble”.
As for `COc1ccc(OCC(COc2ccc(OC)cc2)O[C@H]2O[C@H](CO)[C@@H](O)[C@H](O)[C@@H]2O)cc1`, in the series on HepG2, the Activity entry is reported as “Non-toxic”. Further, in series [3], the inhibition result was “inactive”.
Turning to `OC[C@H]1OC(O)[C@@H](O)[C@@H](O)[C@@H]1O` (stereo partly drawn) [D-MANNOSE], in series [6], binding was characterised by a dissociation constant (Kd) of 2300 nM.
Turning to `COc1ccc2ccc(OCC(CO[C@H]3O[C@H](CO)[C@@H](O)[C@H](O)[C@@H]3O)Oc3ccc4ccc(OC)cc4c3)cc2c1` (some centres not stated), the Activity result with HepG2 is recorded as “Non-toxic”. In series [1], this compound showed an IC50 of 875 nM.
Regarding `OC[C@H]1O[C@H](OC(COc2ccccc2)COc2ccccc2)[C@@H](O)[C@@H](O)[C@@H]1O`, the Activity entry in the series with HepG2 was “Non-toxic”.
For `CCCCCCCO[C@H]1O[C@H](CO)[C@@H](O)[C@H](O)[C@@H]1O`, the half-inhibitory concentration (IC50) in series [1] turned out to be 58.9 nM.
Turning to `OC[C@H]1O[C@H](OC(COc2ccc3ccccc3c2)COc2ccc3ccccc3c2)[C@@H](O)[C@@H](O)[C@@H]1O`, the Activity result in the series with HepG2 is reported as “Non-toxic”. Besides, the inhibition entry in series [3] was “inactive”.
Regarding `O=C(O)Cc1ccc(OCC(COc2cccc3ccccc23)O[C@H]2O[C@H](CO)[C@@H](O)[C@H](O)[C@@H]2O)cc1` (some centres not stated), the Activity entry with HepG2 is “Non-toxic”. The compound further yielded an IC50 in series [1] of 232 nM. In addition, in series [4], the Ratio was 0.25. For the same compound, the solubility result in series [5] is on record as “soluble”.
Take `O=C(NCC(CNC(=O)c1ccc2ccccc2c1)O[C@H]1O[C@H](CO)[C@@H](O)[C@H](O)[C@@H]1O)c1ccc2ccccc2c1`: the half-inhibitory concentration (IC50) in series [1] worked out at 763 nM.
